Patent US20240393292A1, “ALLERGY ANTIGEN AND EPITOPE THEREOF” (HOYU CO., LTD., priority 2019, published 2024)

Tested on: IgE antibodies from patients
Experiment: Wheat epitope mapping (2): overlapping 10-amino-acid peptide fragments shifted by one amino acid;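 on Rank of partial sequence as epitope binding to IgE antibody: key = sequence deemed particularly important within the common 15-residue sequence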;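 on epitope sequence binding to IgE antibody, rank (Key/Preferably/More preferably): key of grades: preferably = shorter partial sequence still acting as epitope; more preferably = sequence improving IgE binding; key = particularly important sequence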
Format: binding, human
How it was run: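 Cellulose-bound 10-mer peptides offset by one residue were probed with patient serum IgE and detected by chemiluminescence. Secondary-antibody-only signals were subtracted per peptide. Residual binding was expressed as % of the parent overlapping peptide, scored as none (<30%), poor (30–<50%), somewhat poor (50–<70%) or retained (≥70%).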

[1] = serum of patient P12 (WDEIA), sequence without X
[2] = serum of patient P50 (child, general immediate type allergy to wheat), sequence without X
[3] = serum of patient P9 (WDEIA), sequence without X
[4] = serum of patient P28 (WDEIA), sequence without X
[5] = serum of patient P35 (WDEIA), sequence without X
[6] = serum of patient P20 (WDEIA), sequence without X
[7] = serum of patient P21 (WDEIA), sequence without X
[8] = serum of patient P26 (WDEIA), sequence without X
[9] = serum of patient P24 (WDEIA), sequence without X
[10] = serum of patient P14 (WDEIA), sequence without X

1382 (PWQQQPLPP; REGION 1..9: note = epitope) [compound 1382]
Epitope sequence binding to IgE antibody, rank of the sequence [1]: Key

2220 (NYRV; REGION 1..4: note = epitope) [compound 2220]
Epitope sequence binding to IgE antibody, rank of the sequence (Key/Preferably/More preferably) (serum of patient P2 (WDEIA), sequence without X): Key

1287 (ILPRS; REGION 1..5: note = epitope) [compound 1287]
Epitope sequence binding to IgE antibody, rank of the sequence [2]: Key

2659 (EAAEMNKRSF; REGION 1..10: note = epitope) [compound 2659]
Epitope sequence binding to IgE antibody, rank of the sequence (serum of patient P35 (WDEIA), partial sequence): Preferably

2346 (YVTEIV; REGION 1..6: note = epitope) [compound 2346]
Epitope sequence binding to IgE antibody, rank of the sequence (Key/Preferably/More preferably) [3]: Preferably

1704 (EAANFT; REGION 1..6: note = epitope) [compound 1704]
Rank of partial sequence as epitope binding to IgE antibody [4]: Key

2530 (FQPSQLNP; REGION 1..8: note = epitope) [compound 2530]
Epitope sequence binding to IgE antibody, rank of the sequence (serum of patient G2 (adult, general immediate type allergy to wheat), partial sequence): Preferably

1966 (QFPGQQ; REGION 1..6: note = epitope) [compound 1966]
epitope sequence binding to IgE antibody, rank (Key/Preferably/More preferably) (serum of patient P33 (WDEIA)): Key

1861 (TVRTLQRT; REGION 1..8: note = epitope) [compound 1861]
epitope sequence binding to IgE antibody, rank (Key/Preferably/More preferably) (serum of patient P24 (WDEIA)): Preferably

1354 (VEDNRRALR; REGION 1..9: note = epitope) [compound 1354]
Epitope sequence binding to IgE antibody, rank of the sequence [5]: Key

2377 (YVTEIV; REGION 1..6: note = epitope) [compound 2377]
Epitope sequence binding to IgE antibody, rank of the sequence (Key/Preferably/More preferably) (serum of patient P27 (WDEIA), sequence without X): Key

1653 (YNPDKVPFV; REGION 1..9: note = epitope) [compound 1653]
Rank of partial sequence as epitope binding to IgE antibody (serum of patient P51 (child, general immediate type allergy to wheat), sequence without X): Preferably

1324 (INVEN; REGION 1..5: note = epitope) [compound 1324]
Epitope sequence binding to IgE antibody, rank of the sequence [6]: Preferably

1757 (KVGYNP; REGION 1..6: note = epitope) [compound 1757]
epitope sequence binding to IgE antibody, rank (Key/Preferably/More preferably) (serum of patient P8 (WDEIA)): Key

1444 (YLQPQQPIS; REGION 1..9: note = epitope) [compound 1444]
Rank of partial sequence as epitope binding to IgE antibody [7]: Preferably

2231 (IRNY; REGION 1..4: note = epitope) [compound 2231]
Epitope sequence binding to IgE antibody, rank of the sequence (Key/Preferably/More preferably) [4]: Key

1817 (SGKELE; REGION 1..6: note = epitope) [compound 1817]
epitope sequence binding to IgE antibody, rank (Key/Preferably/More preferably) (serum of patient P32 (WDEIA)): Key

2608 (QLVQQL; REGION 1..6: note = epitope) [compound 2608]
Epitope sequence binding to IgE antibody, rank of the sequence (serum of patient G6 (adult, general immediate type allergy to wheat), partial sequence): Key

2284 (LGGIDK; REGION 1..6: note = epitope) [compound 2284]
Epitope sequence binding to IgE antibody, rank of the sequence (Key/Preferably/More preferably) [8]: Preferably

1728 (KEAANF; REGION 1..6: note = epitope) [compound 1728]
epitope sequence binding to IgE antibody, rank (Key/Preferably/More preferably) (serum of patient P52 (child, general immediate type allergy to wheat)): Key

2720 (IGGIGTVPVG; REGION 1..10: note = epitope) [compound 2720]
Epitope sequence binding to IgE antibody, rank of the sequence (serum of patient P25 (WDEIA), partial sequence): Preferably

1426 (YLQPQ; REGION 1..5: note = epitope) [compound 1426]
Epitope sequence binding to IgE antibody, rank of the sequence [1]: Key

1920 (LVQQQQFPGQ; REGION 1..10: note = epitope) [compound 1920]
epitope sequence binding to IgE antibody, rank (Key/Preferably/More preferably) (serum of patient P10 (WDEIA)): Key

1586 (QQPFPQTQQP; REGION 1..10: note = epitope) [compound 1586]
Rank of partial sequence as epitope binding to IgE antibody [7]: More preferably

1774 (YLKKVGYNP; REGION 1..9: note = epitope) [compound 1774]
epitope sequence binding to IgE antibody, rank (Key/Preferably/More preferably) (serum of patient P55 (child, general immediate type allergy to wheat)): Preferably

1669 (GYNPDKVPFV; REGION 1..10: note = epitope) [compound 1669]
Rank of partial sequence as epitope binding to IgE antibody (serum of patient G4 (adult, general immediate type allergy to wheat), sequence without X): More preferably

2237 (NYRV; REGION 1..4: note = epitope) [compound 2237]
Epitope sequence binding to IgE antibody, rank of the sequence (Key/Preferably/More preferably) (serum of patient P30 (WDEIA), sequence without X): Key

2345 (YVTEIVL; REGION 1..7: note = epitope) [compound 2345]
Epitope sequence binding to IgE antibody, rank of the sequence (Key/Preferably/More preferably) [3]: More preferably

2464 (WSGKTENEE; REGION 1..9: note = epitope) [compound 2464]
Epitope sequence binding to IgE antibody, rank of the sequence (Key/Preferably/More preferably/Further preferably) [2]: More preferably

1378 (QQPLPPQQQP; REGION 1..10: note = epitope) [compound 1378]
Epitope sequence binding to IgE antibody, rank of the sequence [3]: Preferably

1912 (QVPLVQQQ; REGION 1..8: note = epitope) [compound 1912]
epitope sequence binding to IgE antibody, rank (Key/Preferably/More preferably) (serum of patient P8 (WDEIA)): Preferably

1819 (SGKELEALPK; REGION 1..10: note = epitope) [compound 1819]
epitope sequence binding to IgE antibody, rank (Key/Preferably/More preferably) (serum of patient P33 (WDEIA)): Key

1643 (PDKVPFVPIS; REGION 1..10: note = epitope) [compound 1643]
Rank of partial sequence as epitope binding to IgE antibody [5]: Key

1618 (FVPISG; REGION 1..6: note = epitope) [compound 1618]
Rank of partial sequence as epitope binding to IgE antibody [6]: Key

2367 (VTEIV; REGION 1..5: note = epitope) [compound 2367]
Epitope sequence binding to IgE antibody, rank of the sequence (Key/Preferably/More preferably) [9]: Preferably

1826 (PKFL; REGION 1..4: note = epitope) [compound 1826]
epitope sequence binding to IgE antibody, rank (Key/Preferably/More preferably) (serum of patient G1 (adult, general immediate type allergy to wheat)): Key

2356 (YVTEIV; REGION 1..6: note = epitope) [compound 2356]
Epitope sequence binding to IgE antibody, rank of the sequence (Key/Preferably/More preferably) [10]: Key

2741 (GIGTVPVGRV; REGION 1..10: note = epitope) [compound 2741]
Epitope sequence binding to IgE antibody, rank of the sequence (serum of patient P31 (WDEIA), partial sequence): Key

1493 (YLQPQQPIS; REGION 1..9: note = epitope) [compound 1493]
Rank of partial sequence as epitope binding to IgE antibody (serum of patient P36 (WDEIA), sequence without X): Key

1915 (QVPLVQQQQ; REGION 1..9: note = epitope) [compound 1915]
epitope sequence binding to IgE antibody, rank (Key/Preferably/More preferably) (serum of patient P9 (WDEIA)): Key

1758 (YLKK; REGION 1..4: note = epitope) [compound 1758]
epitope sequence binding to IgE antibody, rank (Key/Preferably/More preferably) (serum of patient P14 (WDEIA)): Key

1791 (PKFL; REGION 1..4: note = epitope) [compound 1791]
epitope sequence binding to IgE antibody, rank (Key/Preferably/More preferably) (serum of patient P3 (WDEIA)): Key

1664 (YNPDKVPF; REGION 1..8: note = epitope) [compound 1664]
Rank of partial sequence as epitope binding to IgE antibody (serum of patient G2 (adult, general immediate type allergy to wheat), sequence without X): Key

1771 (KVGYNP; REGION 1..6: note = epitope) [compound 1771]
epitope sequence binding to IgE antibody, rank (Key/Preferably/More preferably) (serum of patient P50 (child, general immediate type allergy to wheat)): Key

1573 (PQQPQQPFP; REGION 1..9: note = epitope) [compound 1573]
Rank of partial sequence as epitope binding to IgE antibody (serum of patient P16 (WDEIA), sequence without X): Preferably

1872 (YTVRTLQRT; REGION 1..9: note = epitope) [compound 1872]
epitope sequence binding to IgE antibody, rank (Key/Preferably/More preferably) (serum of patient P30 (WDEIA)): Preferably

1388 (QQPLPPQQQ; REGION 1..9: note = epitope) [compound 1388]
Epitope sequence binding to IgE antibody, rank of the sequence [10]: Preferably

2286 (DKRVIERFEK; REGION 1..10: note = epitope) [compound 2286]
Epitope sequence binding to IgE antibody, rank of the sequence (Key/Preferably/More preferably) [8]: Preferably

2506 (SSQVSFQPSQ; REGION 1..10: note = epitope) [compound 2506]
Epitope sequence binding to IgE antibody, rank of the sequence (serum of patient P20 (WDEIA), partial sequence): Preferably

1893 (YTVRTLQRT; REGION 1..9: note = epitope) [compound 1893]
epitope sequence binding to IgE antibody, rank (Key/Preferably/More preferably) (serum of patient G9 (adult, general immediate type allergy to wheat)): Preferably

2684 (YKGPTL; REGION 1..6: note = epitope) [compound 2684]
Epitope sequence binding to IgE antibody, rank of the sequence (serum of patient P26 (WDEIA), partial sequence): Key

1427 (YLQPQQPISQ; REGION 1..10: note = epitope) [compound 1427]
Rank of partial sequence as epitope binding to IgE antibody [10]: More preferably

1463 (QQPISQQQAQ; REGION 1..10: note = epitope) [compound 1463]
Rank of partial sequence as epitope binding to IgE antibody [9]: Further preferably

2564 (QLVQQ; REGION 1..5: note = epitope) [compound 2564]
Epitope sequence binding to IgE antibody, rank of the sequence (serum of patient P24 (WDEIA), partial sequence): Key

1857 (TVRTLQR; REGION 1..7: note = epitope) [compound 1857]
epitope sequence binding to IgE antibody, rank (Key/Preferably/More preferably) (serum of patient P18 (WDEIA)): Preferably

2290 (DKRVIERFE; REGION 1..9: note = epitope) [compound 2290]
Epitope sequence binding to IgE antibody, rank of the sequence (Key/Preferably/More preferably) (serum of patient P33 (WDEIA), sequence without X): Key

1227 (PQQPPC; REGION 1..6: note = epitope) [compound 1227]
Epitope sequence binding to IgE antibody, rank of the sequence [1]: Key
